Patent publication US10159685B2, “Vascular calcification” (Cambridge Enterprise Limited, priority 2016, dated 2018)
Like-named read-outs stand apart in the source and are kept apart here. Marks after values point to notes of the source that are not given here.

Tests used:
Type in all cases: cell-based
[1] = tested on: human vascular smooth muscle cells (hVSMCs); assay: o-Cresolphthalein Ca2+ assay, hVSMC Ca/P calcification model (Examples 7-9); conditions: for Extracellular matrix calcification (summary statement): bovine cell and human cell in vitro vascular calcification model; for Normalised calcium levels (mass of calcium per mass of protein, FIG. 22) / Inhibition of calcification, normalised results (FIG. 27): 8 days; for Normalised calcium levels (mass of calcium per mass of protein, FIG. 22): 3 μM; for Inhibition of calcification, normalised results (FIG. 27): concentrations between 0.05 μM and 3 μM
Protocol: (§1) Primary hVSMCs were cultured in M199 media containing FBS (M199/5% FBS). They were plated at a known cell density, allowed to grow for 24 hours and then treated with control (DMSO only) or calcification media (DMSO containing 2.7 mM Calcium+2.5 mM phosphate)+/−inhibitors. After 6 days, calcification was assessed using the o-Cresolphthalein assay for quantification of Ca^2+ deposition and a BioRad protein assay for protein content.
Medium+/−inhibitors was exchanged every 2-3 days.
as §1, with “8” for “6”, “using” for “using the”
All of the compounds tested were used at a concentration of 3 μM. Medium+/−inhibitors was exchanged every 2-3 days.
as §1, with “phosphate)+/−compounds.” for “phosphate)+/−inhibitors.”, “8” for “6”, “using” for “using the”
These concentrations were chosen to mimic the systemic concentrations of these drugs following patient dosing according to the dose schedule in the prescribing information for each drug. Medium+/−inhibitors was exchanged every 2-3 days.

[2] = tested on: bovine vascular smooth muscle cells (bVSMCs); conditions: 7 days; for Cell viability of bVSMCs after seven days (MTT signal, relative to control): mean of three experiments
Protocol: The toxicity of the identified compounds to bovine VSMCs was measured using the MTT assay, which measures the activity of dehydrogenase enzymes of live cells. This assay can pick up both cell death and proliferation.
Bovine VSMCs were seeded in 96 well plates and cultured in M199/20% FCS for 1 day. Then, the cells were incubated with inhibitor concentrations from 0.5 to 100 μM (in M199 medium+5% FBS). The cells were incubated with the inhibitors for 7 days; every 2-3 days the medium −/+inhibitors was exchanged. Then, the MTT assay was performed. The stock vehicle DMSO was tested at corresponding concentrations to the inhibitors at 0.1% DMSO or less.

[3] = tested on: human monocyte-macrophages (HMMs); assay: MTT toxicity assay, HMMs, seven days (Example 3); conditions: 7 days; for Cell viability by MTT, percent of control: mean of three experiments; for Toxicity to HMMs (in words): at a concentration of 100 μM
Protocol: A similar set of toxicity experiments was performed with human monocyte-macrophages (HMMs).

[4] = tested on: bovine vascular smooth muscle cells (bVSMCs); assay: o-Cresolphthalein Ca2+ assay, bVSMC GAD calcification model (Examples 4 and 5); conditions: GAD-treated bVSMCs, 10 μM, 7 d
Protocol: For the bVSMCs a GAD medium (10 mM β-glycerophosphate/0.1 mM L-ascorbic acid-2-phosphate/10 nM dexamethasone) model was used to induce mineralization in bVSMCs. Accordingly, cells were seeded in tissue culture plates using M199/20% FCS culture medium and cultured overnight. The next day, cells were treated either with medium only (M199/5% FBS)+/−inhibitors, or with the GAD-medium (10 mM β-glycerophosphate/0.1 mM L-ascorbic acid-2-phosphate/[…] dexamethasone)+/−inhibitors.
Medium+/−inhibitors was exchanged every 2-3 days. […]
The o-Cresolphthalein assay is a spectrophotometric method for measuring Ca^2+-concentrations in cell/tissue lysates. Following the calcification experiments, cells are briefly washed to remove medium and 100 […]1 of 0.1 N HCl is added to each well to dissolve any mineral deposits. Then, the Ca^2+-concentration of the samples is measured spectrophotometrically (at 570 nm) in the o-cresolphthalein assay with the help of a CaCl2 standard curve in a concentration range of ˜0.02-270 µg Ca^2+/ml.
The commercial BioRad DC protein assay is based on the Lowry method, aka reaction of proteins with a copper-tartrate complex and subsequent reaction with Folin's reagent. Following the calcification experiment, cells are briefly washed to remove medium and 100 µl of solubilisation solution (0.1 M NaOH/1% SDS/DIW) is added to each well to lyse the cells. The protein concentrations of the lysates are subsequently determined in the BioRad DC assay as per supplier's instructions using BSA (bovine serum albumin) as standard.
The in vitro model is the same as the model used in example 4; bovine vascular smooth muscle cells (bVSMCs) cultured so that they produce extracellular matrix, with the addition of the GAD medium (10 mM β-glycerophosphate/0.1 mM L-ascorbic acid-2-phosphate/10 nM dexamethasone).
As above, cells were treated either with medium only (“no-additions”; NA)+/−inhibitors, or with the GAD-medium+/−inhibitors. The inhibitors used were PJ34 and minocyclin (MC) at 10 μM, 1 μM and 0.1 μM.
The methodology was the same as that described in example 4.

[5] = hVSMCs, 6 days, PJ34 10 μM, minocycline and cilostazol 0.5, 1 and 2 μM
[6] = at the concentrations tested (0.5 to 100 μM)

Structure (SMILES)	Extracellular matrix calcification (summary statement) [1]	Normalised calcium levels (mass of calcium per mass of protein, FIG. 22) ([1]; hVSMCs)	Cell viability of bVSMCs after seven days (MTT signal, relative to control) ([2]; 0.5 uM)	Cell viability of bVSMCs after seven days (MTT signal, relative to control) ([2]; 1 uM)	Cell viability of bVSMCs after seven days (MTT signal, relative to control) ([2]; 2 uM)	Cell viability of bVSMCs after seven days (MTT signal, relative to control) ([2]; 5 uM)	Cell viability of bVSMCs after seven days (MTT signal, relative to control) ([2]; 10 uM)	Cell viability of bVSMCs after seven days (MTT signal, relative to control) ([2]; 20 uM)	Cell viability of bVSMCs after seven days (MTT signal, relative to control) ([2]; 50 uM)	Cell viability of bVSMCs after seven days (MTT signal, relative to control) ([2]; 100 uM)	Cell viability by MTT, percent of control ([3]; 0.5 uM)	Cell viability by MTT, percent of control ([3]; 1 uM)	Cell viability by MTT, percent of control ([3]; 2 uM)	Cell viability by MTT, percent of control ([3]; 5 uM)	Cell viability by MTT, percent of control ([3]; 10 uM)	Cell viability by MTT, percent of control ([3]; 20 uM)	Cell viability by MTT, percent of control ([3]; 50 uM)	Cell viability by MTT, percent of control ([3]; 100 uM)	Toxicity to HMMs (in words) [3]	Inhibition of calcification, normalised results (FIG. 27) ([1]; hVSMCs)	other results
CNCc1ccc(-c2[nH]c3cc(F)cc4c3c2CCNC4=O)cc1 [rucaparib]	significantly reduce extracellular matrix calcification	particularly effective	–	–	–	–	–	–	–	–	–	–	–	–	–	–	–	–	–	–	–
O=C(c1cc(Cc2n[nH]c(=O)c3ccccc23)ccc1F)N1CCN(C(=O)C2CC2)CC1 [olaparib]	significantly reduce extracellular matrix calcification	–	–	–	–	–	–	–	–	–	–	–	–	–	–	–	–	–	–	–	–
O=C1CCc2cc(OCCCCc3nnnn3C3CCCCC3)ccc2N1 [cilostazol]	significantly reduce extracellular matrix calcification	particularly effective	98.22	93.93	86.31*	86.87*	88.38*	90.45*	84.93*	65.21*	105.05	103.62	75.63	90.74	79.83	81.50	73.73	77.06	relatively innocuous	inhibit calcification significantly and repeatedly	Toxicity to bVSMCs (MTT assay, in words) ([2]; at 50 and 100 μM): toxic; Calcium levels (mass of calcium, FIG. 7B) compared to no inhibitors [4]: no effect; Normalised calcium levels (mass of calcium per mass of protein, FIG. 9B) [4]: does not appear to have an effect; Calcium levels (mass of calcium, FIG. 17) versus DMSO Ca+P positive control [1, 5]: reduce the calcium levels; Normalised calcium levels (mass of calcium per mass of protein, FIG. 19) [1, 5]: lower calcium levels significantly
CC(C)c1c(C(=O)Nc2ccccc2)c(-c2ccccc2)c(-c2ccc(F)cc2)n1CC[C@@H](O)C[C@@H](O)CC(=O)O [atorvastatin]	–	–	–	–	–	–	–	–	–	–	–	–	–	–	–	–	–	–	–	do not inhibit medial vascular calcification	–
C[C@]1(c2nc3c(C(N)=O)cccc3[nH]2)CCCN1 [veliparib]	significantly reduce extracellular matrix calcification	particularly effective	–	–	–	–	–	–	–	–	–	–	–	–	–	–	–	–	–	inhibit calcification significantly and repeatedly	–
Cn1ncnc1[C@H]1c2n[nH]c(=O)c3cc(F)cc(c23)N[C@@H]1c1ccc(F)cc1 [talazoparib]	significantly reduce extracellular matrix calcification	–	–	–	–	–	–	–	–	–	–	–	–	–	–	–	–	–	–	–	–
CCCCc1nc(Cl)c(CO)n1Cc1ccc(-c2ccccc2-c2nn[nH]n2)cc1 [losartan]	–	–	–	–	–	–	–	–	–	–	–	–	–	–	–	–	–	–	–	do not inhibit medial vascular calcification	–
COc1ccc([C@@H]2Sc3ccccc3N(CCN(C)C)C(=O)[C@@H]2OC(C)=O)cc1 [Diltiazem, diltiazem]	–	–	98.78	96.07	89.48*	91.88*	94.54	113.60*	143.28*	119.64*	97.10	104.94	99.61	91.09	92.45	100.42	92.16	53.65*	most toxic	–	Stimulatory effect on bVSMCs (MTT assay) ([2]; at 20 μM and above): stimulatory effect; Toxicity to bVSMCs (MTT assay, in words) [2, 6]: non-toxic; Calcium levels (mass of calcium, FIG. 7B) compared to no inhibitors [4]: lower calcium levels; Normalised calcium levels (mass of calcium per mass of protein, FIG. 9B) [4]: slightly lower calcium levels
O=C1NCCc2c(OCCCCN3CCCCC3)cccc21 [DPQ, 3,4-dihydro-5-[4-(1-piperidinyl)butoxyl]-1(2H)-isoquinolinone]	–	–	100.30	101.78	92.11*	94.96	92.58*	94.24*	89.46*	89.87*	106.61	88.68	89.59	95.11	91.82	91.99	86.74	90.94	relatively innocuous	–	Toxicity to bVSMCs (MTT assay, in words) [2, 6]: virtually non-toxic
NC(=O)c1cccc2cn(-c3ccc([C@@H]4CCCNC4)cc3)nc12 [niraparib]	significantly reduce extracellular matrix calcification	particularly effective	–	–	–	–	–	–	–	–	–	–	–	–	–	–	–	–	–	–	–
